Data published in patent publication US8304206B2, “Mass spectrometry assays for identifying compounds that activate deacetylases” (Sirtris Pharmaceuticals, Inc., priority 2005, dated 2012).

Target: T1, SIRT1 (Homo sapiens, UniProt Q96EB6)
T1 sequence (Q96EB6 1-747): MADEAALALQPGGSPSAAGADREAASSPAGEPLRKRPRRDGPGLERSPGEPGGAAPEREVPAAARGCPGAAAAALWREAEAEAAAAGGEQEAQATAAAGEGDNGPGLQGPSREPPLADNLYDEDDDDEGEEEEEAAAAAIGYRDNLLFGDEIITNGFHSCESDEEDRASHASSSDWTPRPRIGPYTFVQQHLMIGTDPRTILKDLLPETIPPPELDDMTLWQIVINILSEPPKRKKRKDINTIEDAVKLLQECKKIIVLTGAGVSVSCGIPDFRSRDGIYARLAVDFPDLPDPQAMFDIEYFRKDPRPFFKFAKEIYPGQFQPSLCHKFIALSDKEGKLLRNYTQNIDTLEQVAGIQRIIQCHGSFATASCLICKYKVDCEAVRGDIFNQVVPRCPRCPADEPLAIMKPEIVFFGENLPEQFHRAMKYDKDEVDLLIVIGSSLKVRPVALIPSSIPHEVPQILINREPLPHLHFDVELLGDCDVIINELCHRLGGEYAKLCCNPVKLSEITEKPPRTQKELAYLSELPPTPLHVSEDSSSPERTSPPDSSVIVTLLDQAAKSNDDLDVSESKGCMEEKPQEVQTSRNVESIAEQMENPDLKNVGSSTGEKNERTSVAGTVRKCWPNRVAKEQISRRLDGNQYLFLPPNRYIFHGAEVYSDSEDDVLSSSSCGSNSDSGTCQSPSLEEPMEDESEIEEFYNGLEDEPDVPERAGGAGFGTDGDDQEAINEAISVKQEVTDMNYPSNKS
Assay: SIRT1 mass spectrometry assay (screening for activation)
Assay type: biochemical
Details: for FOLD ACTIVATION MS: activation of SIRT1, mass spectrometry; for EC50: activation of SIRT1, 0.5 μM peptide substrate (SEQ ID NO: 34), 120 μM NAD+, 10 nM SIRT1, 25 min, read-out: ED50 MS ASSAY

Row | Structure (SMILES) | FOLD ACTIVATION MS | EC50 [µM]
1 | COc1cc(C(=O)Nc2ccccc2-c2cn3cc(CN(C)C)sc3n2)cc(OC)c1OC [compound 179] | A (Fold activation>250%) | < 50
2 | CN(C)c1cccc(C(=O)Nc2ccc(-c3nc4cccnc4[nH]3)cc2)c1 [compound 180] | B (Fold Activation<250%) | –
3 | COc1ccc(C(=O)Nc2cccc(-c3nc4cccnc4[nH]3)c2)c(OC)c1OC [compound 181] | A (Fold activation>250%) | < 50
4 | COc1cc(C)ccc1C(=O)Nc1cccc(-c2nc3cccnc3[nH]2)c1 [compound 182] | A (Fold activation>250%) | < 50
5 | CN(C)c1cccc(C(=O)Nc2cccc(-c3nc4ncccc4[nH]3)c2)c1 [compound 183] | A (Fold activation>250%) | –
6 | COc1ccc(C(=O)Nc2cccc(-c3nc4ncccc4[nH]3)c2)c(OC)c1 [compound 184] | B (Fold Activation<250%) | < 50
7 | COc1ccc(C(=O)Nc2cccc(-c3nc4cccnc4[nH]3)c2)cc1OC [compound 185] | A (Fold activation>250%) | < 50
8 | COc1cc(C)ccc1C(=O)Nc1ccc(-c2cc3cccnc3o2)cc1 [compound 187] | B (Fold Activation<250%) | –
9 | COc1ccc(C(=O)Nc2ccc(-c3cc4cccnc4o3)cc2)c(OC)c1 [compound 190] | B (Fold Activation<250%) | < 50
10 | COc1ccc(C(=O)Nc2cccc(-c3cc4cccnc4o3)c2)c(OC)c1 [compound 191] | B (Fold Activation<250%) | < 50
11 | COc1ccc(C(=O)Nc2cccc(-c3cc4cccnc4o3)c2)cc1OC [compound 192] | B (Fold Activation<250%) | –
12 | CN(C)c1cccc(C(=O)Nc2ccc(-c3nc4ncccc4s3)cc2)c1 [compound 196] | B (Fold Activation<250%) | –
13 | COc1ccc(C(=O)Nc2ccc(-c3nc4ncccc4s3)cc2)cc1OC [compound 197] | B (Fold Activation<250%) | < 50
14 | COc1ccc(C(=O)Nc2cccc(-c3nc4ncccc4s3)c2)c(OC)c1OC [compound 198] | B (Fold Activation<250%) | –
15 | COc1cc(C)ccc1C(=O)Nc1cccc(-c2nc3ncccc3s2)c1 [compound 199] | B (Fold Activation<250%) | < 50
16 | CN(C)c1cccc(C(=O)Nc2cccc(-c3nc4ncccc4s3)c2)c1 [compound 200] | B (Fold Activation<250%) | < 50
17 | COc1ccc(C(=O)Nc2cccc(-c3nc4ncccc4s3)c2)cc1OC [compound 201] | B (Fold Activation<250%) | –
18 | COc1ccc(C(=O)Nc2cccc(-c3nc4ncccc4s3)c2)c(OC)c1 [compound 202] | B (Fold Activation<250%) | < 50
19 | COc1ccc(C(=O)Nc2ccccc2-c2cn3ccsc3n2)cc1OC [compound 203] | B (Fold Activation<250%) | < 50
20 | COc1cc(C(=O)Nc2ccccc2-c2cn3ccsc3n2)cc(OC)c1OC [compound 204] | A (Fold activation>250%) | < 50
21 | COc1ccc(C(=O)Nc2ccccc2-c2cn3c(CN(C)C)csc3n2)cc1OC [compound 205] | A (Fold activation>250%) | –
22 | COc1cc(C(=O)Nc2ccccc2-c2cn3c(CN(C)C)csc3n2)cc(OC)c1OC [compound 206] | A (Fold activation>250%) | –
23 | COc1ccc(C(=O)Nc2ccccc2-c2cn3c(CN4CCNCC4)csc3n2)cc1OC [compound 207] | A (Fold activation>250%) | –
24 | COc1cc(C(=O)Nc2ccccc2-c2cn3c(CN4CCNCC4)csc3n2)cc(OC)c1OC [compound 208] | A (Fold activation>250%) | –

Second part, the molecule after the results:

Row | FOLD ACTIVATION MS | EC50 [µM] | Structure (SMILES)
25 | A (Fold activation>250%) | – | COc1ccc(C(=O)Nc2ccccc2-c2cn3c(CN4CCOCC4)csc3n2)cc1OC [compound 209]
26 | B (Fold Activation<250%) | – | COc1cc(C(=O)Nc2ccccc2-c2cn3c(CN4CCOCC4)csc3n2)cc(OC)c1OC [compound 210]
27 | B (Fold Activation<250%) | < 50 | COc1ccc(C(=O)Nc2cccc(-c3nc4ccccc4[nH]3)c2)c(OC)c1 [compound 211]
28 | B (Fold Activation<250%) | – | COc1cccc(C(=O)Nc2cccc(-c3nc4cccnc4s3)c2)c1 [compound 212]
29 | B (Fold Activation<250%) | < 50 | COc1ccc(C(=O)Nc2cccc(-c3nc4cccnc4s3)c2)c(OC)c1 [compound 213]
30 | B (Fold Activation<250%) | – | COc1cccc(C(=O)Nc2cccc(-c3nc4cccnc4s3)c2)c1OC [compound 214]
31 | B (Fold Activation<250%) | < 50 | COc1cc(OC)cc(C(=O)Nc2cccc(-c3nc4cccnc4s3)c2)c1 [compound 215]
32 | B (Fold Activation<250%) | < 50 | COc1ccc(C(=O)Nc2cccc(-c3nc4cccnc4s3)c2)cc1 [compound 216]
33 | A (Fold activation>250%) | < 50 | COc1cc(C(=O)Nc2cccc(-c3nc4cccnc4s3)c2)cc(OC)c1OC [compound 217]
34 | A (Fold activation>250%) | < 50 | COc1cc(C(=O)Nc2cccc(-c3cn4cccnc4n3)c2)cc(OC)c1OC [compound 218]
35 | A (Fold activation>250%) | – | COc1cc(C(=O)Nc2cccc(-c3nc4ncccn4c3C)c2)cc(OC)c1OC [compound 219]
36 | B (Fold Activation<250%) | – | O=C(Nc1cccc(-c2nc3ccncc3s2)c1)c1ccco1 [compound 221]
37 | B (Fold Activation<250%) | – | O=C(Nc1cccc(-c2nc3ccncc3s2)c1)c1cccnc1Cl [compound 222]
38 | B (Fold Activation<250%) | < 50 | O=C(Nc1cccc(-c2nc3ccncc3s2)c1)c1cccs1 [compound 223]
39 | A (Fold activation>250%) | – | Cc1cc(C(=O)Nc2cccc(-c3nc4ccncc4s3)c2)n(C(C)(C)C)n1 [compound 228]
40 | B (Fold Activation<250%) | < 50 | O=C(Nc1cccc(-c2nc3ccncc3s2)c1)c1cnn(-c2ccccc2)c1C(F)(F)F [compound 238]

Row | FOLD ACTIVATION MS | EC50 [µM] | Structure (SMILES)
41 | B (Fold Activation<250%) | < 50 | O=S(=O)(Nc1cccc(-c2nc3ccncc3s2)c1)c1ccc(OC(F)(F)F)cc1 [compound 239]
42 | B (Fold Activation<250%) | < 50 | O=C(Nc1cccc(-c2nc3ccncc3s2)c1)c1ccc(-c2ccccc2)o1 [compound 241]
43 | B (Fold Activation<250%) | < 50 | O=C(Nc1cccc(-c2nc3ccncc3s2)c1)c1ccccc1Oc1ccccc1 [compound 245]
44 | B (Fold Activation<250%) | < 50 | Cn1nc(C(C)(C)C)cc1C(=O)Nc1cccc(-c2nc3ccncc3s2)c1 [compound 246]
45 | B (Fold Activation<250%) | – | O=C(Nc1cccc(-c2nc3ccncc3s2)c1)c1cc(C(F)(F)F)ccc1C(F)(F)F [compound 248]
46 | B (Fold Activation<250%) | < 50 | COc1ccc(C(=O)Nc2ccccc2-c2cc3ccccc3[nH]2)cc1OC [compound 254]
47 | B (Fold Activation<250%) | < 50 | COc1cc(C(=O)Nc2ccccc2-c2cc3ccccc3[nH]2)cc(OC)c1OC [compound 255]
48 | B (Fold Activation<250%) | – | COC(=O)c1ccc(-n2cncn2)c(NC(=O)c2ccc(OC)c(OC)c2)c1 [compound 258]
49 | A (Fold activation>250%) | < 50 | COc1cc(C(=O)Nc2cccc(-c3nc4ccccc4[nH]3)n2)cc(OC)c1OC [compound 259]
50 | A (Fold activation>250%) | < 50 | COc1ccc(C(=O)Nc2cccc(-c3nc4ccccc4[nH]3)n2)cc1OC [compound 260]
51 | A (Fold activation>250%) | < 50 | COc1cccc(C(=O)Nc2cccc(-c3nc4ccccc4[nH]3)n2)c1 [compound 261]
52 | B (Fold Activation<250%) | < 50 | COc1ccc(C(=O)Nc2ccc(-c3nc4ccccc4[nH]3)cc2)c(OC)c1 [compound 262]
53 | B (Fold Activation<250%) | – | COc1cc(C(=O)Nc2ccc(-c3nc4ccccc4[nH]3)cc2)cc(OC)c1OC [compound 263]
54 | B (Fold Activation<250%) | < 50 | CN(C)c1cccc(C(=O)Nc2ccc(-c3cc4ccccc4[nH]3)cc2)c1 [compound 264]
55 | B (Fold Activation<250%) | – | COc1ccc(C(=O)Nc2ccccc2-c2cn3ccccc3n2)c(OC)c1 [compound 265]
56 | A (Fold activation>250%) | < 50 | COc1ccc(C(=O)Nc2ccccc2-c2cn3ccccc3n2)cc1OC [compound 266]
